{"source": "ChEMBL document CHEMBL4699583", "about": "(J Med Chem, 2020)", "key": {"[1]": {"molecular_target": "Cannabinoid receptor 1 (Homo sapiens) (UniProt P21554)", "assay": "Agonist activity at human cannabinoid receptor 1 at 2 uM by cell based cAMP assay", "format": "functional"}, "[2]": {"molecular_target": "DNA topoisomerase 2-alpha (Homo sapiens, UniProt P11388)", "assay": "Poison activity at human topoisomerase 2alpha assessed as DNA cleavage by measuring linear DNA formation using supercoiled pBR322 DNA as substrate at 5 to 200 uM measured after 6 mins by agarose gel electrophoresis method", "conditions": "0.1 h, dose 5-200 µM"}, "DNA": {"tested_on": "DNA", "assay": "Induction of Escherichia coli relaxed pBR322 DNA intercalation in presence of calf-thymus DNA topoisomerase I at 1 to 25 uM incubated for 15 mins by ethidium bromide dye based agarose gel electrophoresis method", "format": "nucleic-acid assay", "conditions": "dose 1-25 µM"}, "[3]": {"assay": "Kinetic solubility of compound in PBS at pH 7.4 incubated for 24 hrs under shaking condition by UPLC-MS analysis", "format": "physicochemical", "conditions": "buffer, pH 7.4, 24 h"}, "[4]": {"assay": "Clearance in C57B6/J mouse at 10 mg/kg, ip administered as single dose by UPLC/MS TQD analysis", "format": "ADME, organism-based", "conditions": "in vivo"}, "[5]": {"molecular_target": "Adenosine receptor A2a (Homo sapiens) (UniProt P29274)", "sequence (P29274 whole entry)": "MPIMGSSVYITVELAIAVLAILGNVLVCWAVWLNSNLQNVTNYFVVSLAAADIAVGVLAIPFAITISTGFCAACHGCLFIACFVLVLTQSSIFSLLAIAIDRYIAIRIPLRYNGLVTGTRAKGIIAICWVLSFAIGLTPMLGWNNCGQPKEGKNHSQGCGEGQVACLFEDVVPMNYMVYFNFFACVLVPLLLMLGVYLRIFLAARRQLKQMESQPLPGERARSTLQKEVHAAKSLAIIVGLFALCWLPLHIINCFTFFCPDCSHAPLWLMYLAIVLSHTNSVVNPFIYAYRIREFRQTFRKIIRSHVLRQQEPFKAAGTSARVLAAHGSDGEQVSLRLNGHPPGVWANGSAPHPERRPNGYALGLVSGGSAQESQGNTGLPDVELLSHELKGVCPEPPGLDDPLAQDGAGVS", "assay": "Antagonist activity at human adenosine A2A at 2 uM by cell based calcium flux assay", "format": "functional"}, "[6]": {"molecular_target": "Beta-1 adrenergic receptor (Homo sapiens) (UniProt P08588)", "sequence (P08588 whole entry, looked up)": "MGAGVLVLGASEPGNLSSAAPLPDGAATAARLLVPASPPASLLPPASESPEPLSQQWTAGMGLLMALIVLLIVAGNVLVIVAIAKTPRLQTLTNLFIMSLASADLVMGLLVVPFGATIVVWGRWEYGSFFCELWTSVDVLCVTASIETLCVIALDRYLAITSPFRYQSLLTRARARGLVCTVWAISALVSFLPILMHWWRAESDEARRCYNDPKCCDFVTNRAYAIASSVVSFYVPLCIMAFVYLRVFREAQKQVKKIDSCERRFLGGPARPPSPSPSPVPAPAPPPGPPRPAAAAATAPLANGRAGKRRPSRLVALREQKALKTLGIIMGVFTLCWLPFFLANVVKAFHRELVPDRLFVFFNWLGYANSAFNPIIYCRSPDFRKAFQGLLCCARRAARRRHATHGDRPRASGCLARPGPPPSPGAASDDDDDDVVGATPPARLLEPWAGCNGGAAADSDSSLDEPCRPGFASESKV", "assay": "Agonist activity at human adrenergic beta1 receptor at 2 uM by cell based cAMP assay", "format": "functional"}, "[7]": {"molecular_target": "Alpha-2A adrenergic receptor (Homo sapiens) (UniProt P08913)", "assay": "Agonist activity at human alpha-2A adrenergic receptor at 2 uM by cell based cAMP assay", "format": "functional"}, "[8]": {"molecular_target": "Vasopressin V1a receptor (Homo sapiens) (UniProt P37288)", "assay": "Agonist activity at human vasopressin V1a receptor at 2 uM by cell based calcium flux assay", "format": "functional"}, "[9]": {"molecular_target": "Cholecystokinin receptor type A (Homo sapiens) (UniProt P32238)", "assay": "Antagonist activity at human cholecystokinin typeA receptor at 2 uM by cell based calcium flux assay", "format": "functional"}, "[10]": {"molecular_target": "Muscarinic acetylcholine receptor M1 (Homo sapiens) (UniProt P11229)", "assay": "Agonist activity at human muscarinic acetylcholine receptor M1 at 2 uM by cell based calcium flux assay", "format": "functional"}, "[11]": {"molecular_target": "Muscarinic acetylcholine receptor M2 (Homo sapiens) (UniProt P08172)", "sequence (P08172 whole entry)": "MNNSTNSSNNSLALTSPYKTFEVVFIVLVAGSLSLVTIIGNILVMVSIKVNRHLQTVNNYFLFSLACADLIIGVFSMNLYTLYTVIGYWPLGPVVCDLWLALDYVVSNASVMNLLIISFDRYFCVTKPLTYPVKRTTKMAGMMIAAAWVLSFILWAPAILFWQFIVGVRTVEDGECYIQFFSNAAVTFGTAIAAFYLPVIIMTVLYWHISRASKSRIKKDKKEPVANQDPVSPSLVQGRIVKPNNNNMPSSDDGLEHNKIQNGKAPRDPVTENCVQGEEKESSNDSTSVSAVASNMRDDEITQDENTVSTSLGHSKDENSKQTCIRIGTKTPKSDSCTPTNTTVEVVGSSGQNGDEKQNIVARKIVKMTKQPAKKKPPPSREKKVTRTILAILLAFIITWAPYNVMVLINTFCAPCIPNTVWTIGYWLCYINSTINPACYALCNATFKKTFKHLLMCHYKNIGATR", "assay": "Agonist activity at human muscarinic acetylcholine receptor M2 at 2 uM by cell based cAMP assay", "format": "functional"}, "[12]": {"molecular_target": "Muscarinic acetylcholine receptor M2 (Homo sapiens) (UniProt P08172)", "assay": "Antagonist activity at human muscarinic acetylcholine receptor M2 at 2 uM by cell based cAMP assay", "format": "functional"}, "[13]": {"molecular_target": "Muscarinic acetylcholine receptor M3 (Homo sapiens) (UniProt P20309)", "sequence (P20309 whole entry, looked up)": "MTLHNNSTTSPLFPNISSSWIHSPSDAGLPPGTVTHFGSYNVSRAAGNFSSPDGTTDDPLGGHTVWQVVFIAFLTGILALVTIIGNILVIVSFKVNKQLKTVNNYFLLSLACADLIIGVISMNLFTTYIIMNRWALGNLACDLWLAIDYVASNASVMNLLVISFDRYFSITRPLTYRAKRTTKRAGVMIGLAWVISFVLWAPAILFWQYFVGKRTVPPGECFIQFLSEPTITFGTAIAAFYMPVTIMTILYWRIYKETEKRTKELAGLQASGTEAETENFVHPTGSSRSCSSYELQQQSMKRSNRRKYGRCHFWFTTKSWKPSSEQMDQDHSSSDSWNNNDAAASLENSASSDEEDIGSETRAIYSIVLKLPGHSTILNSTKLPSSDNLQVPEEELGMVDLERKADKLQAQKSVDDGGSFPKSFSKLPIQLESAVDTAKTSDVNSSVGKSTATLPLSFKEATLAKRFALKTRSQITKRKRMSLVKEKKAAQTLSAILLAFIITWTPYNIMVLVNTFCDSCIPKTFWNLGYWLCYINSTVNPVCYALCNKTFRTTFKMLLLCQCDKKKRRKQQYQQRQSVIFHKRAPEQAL", "assay": "Agonist activity at human muscarinic acetylcholine receptor M3 at 2 uM by cell based calcium flux assay", "format": "functional"}, "[14]": {"molecular_target": "Muscarinic acetylcholine receptor M3 (Homo sapiens) (UniProt P20309)", "assay": "Antagonist activity at human muscarinic acetylcholine receptor M3 at 2 uM by cell based calcium flux assay", "format": "functional"}, "[15]": {"molecular_target": "Cannabinoid receptor 2 (Homo sapiens) (UniProt P34972)", "sequence (P34972 whole entry)": "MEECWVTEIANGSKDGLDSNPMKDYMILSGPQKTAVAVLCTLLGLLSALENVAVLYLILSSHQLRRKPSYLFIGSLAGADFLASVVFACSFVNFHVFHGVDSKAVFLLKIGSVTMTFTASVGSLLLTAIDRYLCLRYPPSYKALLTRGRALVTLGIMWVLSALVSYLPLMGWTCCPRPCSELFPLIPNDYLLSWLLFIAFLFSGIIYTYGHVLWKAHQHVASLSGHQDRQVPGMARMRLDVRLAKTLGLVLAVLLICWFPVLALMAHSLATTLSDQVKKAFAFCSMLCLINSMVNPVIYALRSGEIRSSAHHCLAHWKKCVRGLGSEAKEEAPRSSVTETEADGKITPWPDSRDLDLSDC", "assay": "Agonist activity at human cannabinoid receptor 2 at 2 uM by cell based cAMP assay", "format": "functional"}, "[16]": {"molecular_target": "D(2) dopamine receptor (Homo sapiens) (UniProt P14416)", "assay": "Antagonist activity at human dopamine D2S receptor at 2 uM by cell based cAMP assay", "format": "functional"}, "[17]": {"molecular_target": "Endothelin-1 receptor (Homo sapiens) (UniProt P25101)", "sequence (P25101 whole entry)": "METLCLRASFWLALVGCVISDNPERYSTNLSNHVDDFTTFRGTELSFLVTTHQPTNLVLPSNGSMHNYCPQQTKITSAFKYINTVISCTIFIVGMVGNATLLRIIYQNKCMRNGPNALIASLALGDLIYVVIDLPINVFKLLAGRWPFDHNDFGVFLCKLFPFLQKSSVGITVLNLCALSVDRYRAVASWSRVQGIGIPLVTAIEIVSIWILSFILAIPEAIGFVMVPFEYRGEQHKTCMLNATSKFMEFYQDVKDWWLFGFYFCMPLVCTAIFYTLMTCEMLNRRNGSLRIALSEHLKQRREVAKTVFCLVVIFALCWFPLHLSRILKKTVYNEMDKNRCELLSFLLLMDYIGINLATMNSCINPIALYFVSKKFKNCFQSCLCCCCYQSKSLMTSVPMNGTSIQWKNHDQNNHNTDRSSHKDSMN", "assay": "Agonist activity at human endothelin 1 receptor at 2 uM by cell based calcium flux assay", "format": "functional"}, "[18]": {"molecular_target": "Endothelin-1 receptor (Homo sapiens) (UniProt P25101)", "assay": "Antagonist activity at human endothelin 1 receptor at 2 uM by cell based calcium flux assay", "format": "functional"}, "[19]": {"molecular_target": "Histamine H1 receptor (Homo sapiens) (UniProt P35367)", "sequence (P35367 whole entry)": "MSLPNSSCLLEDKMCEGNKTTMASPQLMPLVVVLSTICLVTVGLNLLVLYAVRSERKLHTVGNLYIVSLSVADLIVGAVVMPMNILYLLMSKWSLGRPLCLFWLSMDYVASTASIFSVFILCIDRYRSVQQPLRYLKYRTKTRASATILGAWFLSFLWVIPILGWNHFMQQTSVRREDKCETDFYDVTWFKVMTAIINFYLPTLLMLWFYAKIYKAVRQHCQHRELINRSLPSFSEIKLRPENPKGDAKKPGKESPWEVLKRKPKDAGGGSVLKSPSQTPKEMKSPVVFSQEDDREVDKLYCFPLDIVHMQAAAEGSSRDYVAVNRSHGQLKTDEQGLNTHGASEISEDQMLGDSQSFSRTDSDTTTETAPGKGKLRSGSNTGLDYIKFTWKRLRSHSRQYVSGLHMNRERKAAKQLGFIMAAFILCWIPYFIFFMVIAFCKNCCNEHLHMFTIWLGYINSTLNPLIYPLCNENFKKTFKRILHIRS", "assay": "Agonist activity at human histamine H1 receptor at 2 uM by cell based calcium flux assay", "format": "functional"}, "[20]": {"molecular_target": "Histamine H1 receptor (Homo sapiens) (UniProt P35367)", "assay": "Antagonist activity at human histamine H1 receptor at 2 uM by cell based calcium flux assay", "format": "functional"}, "[21]": {"molecular_target": "Histamine H2 receptor (Homo sapiens) (UniProt P25021)", "assay": "Antagonist activity at human histamine H2 receptor at 2 uM by cell based cAMP assay", "format": "functional"}, "[22]": {"molecular_target": "5-hydroxytryptamine receptor 1A (Homo sapiens) (UniProt P08908)", "sequence (P08908 whole entry)": "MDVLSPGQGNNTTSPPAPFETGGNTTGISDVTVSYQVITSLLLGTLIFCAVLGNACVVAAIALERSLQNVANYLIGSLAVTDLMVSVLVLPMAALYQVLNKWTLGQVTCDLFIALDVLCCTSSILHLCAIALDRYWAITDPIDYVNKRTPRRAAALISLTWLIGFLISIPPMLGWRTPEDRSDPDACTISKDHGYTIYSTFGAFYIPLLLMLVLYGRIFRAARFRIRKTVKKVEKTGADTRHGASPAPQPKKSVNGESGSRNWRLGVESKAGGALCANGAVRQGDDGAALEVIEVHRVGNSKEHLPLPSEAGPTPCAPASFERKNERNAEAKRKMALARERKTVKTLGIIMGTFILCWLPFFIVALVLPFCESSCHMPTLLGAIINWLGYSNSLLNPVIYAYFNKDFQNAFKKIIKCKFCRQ", "assay": "Agonist activity at human 5HT1A receptor at 2 uM by cell based cAMP assay", "format": "functional"}, "[23]": {"molecular_target": "5-hydroxytryptamine receptor 1B (Homo sapiens) (UniProt P28222)", "sequence (P28222 whole entry)": "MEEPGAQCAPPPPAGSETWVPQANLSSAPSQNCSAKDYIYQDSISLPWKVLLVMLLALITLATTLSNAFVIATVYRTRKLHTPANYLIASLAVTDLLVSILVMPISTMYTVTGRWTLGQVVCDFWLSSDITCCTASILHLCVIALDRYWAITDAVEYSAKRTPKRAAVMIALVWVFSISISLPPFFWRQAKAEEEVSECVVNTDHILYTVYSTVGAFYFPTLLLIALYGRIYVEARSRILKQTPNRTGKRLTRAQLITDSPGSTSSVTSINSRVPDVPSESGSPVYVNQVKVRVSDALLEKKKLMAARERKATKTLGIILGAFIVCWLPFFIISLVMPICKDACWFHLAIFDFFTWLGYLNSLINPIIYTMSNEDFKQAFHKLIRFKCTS", "assay": "Agonist activity at human 5HT1B receptor at 2 uM by cell based cAMP assay", "format": "functional"}, "[24]": {"molecular_target": "5-hydroxytryptamine receptor 1B (Homo sapiens) (UniProt P28222)", "assay": "Antagonist activity at human 5HT1B receptor at 2 uM by cell based cAMP assay", "format": "functional"}, "[25]": {"molecular_target": "Kappa-type opioid receptor (Homo sapiens) (UniProt P41145)", "assay": "Antagonist activity at human kappa opioid receptor at 2 uM by cell based cAMP assay", "format": "functional"}, "[26]": {"molecular_target": "Mu-type opioid receptor (Homo sapiens) (UniProt P35372)", "assay": "Agonist activity at human mu opioid receptor at 2 uM by cell based cAMP assay", "format": "functional"}, "[27]": {"molecular_target": "Androgen receptor (Homo sapiens) (UniProt P10275)", "assay": "Antagonist activity at human androgen receptor at 2 uM by cell based nuclear translocation assay"}, "[28]": {"molecular_target": "Glucocorticoid receptor (Homo sapiens) (UniProt P04150)", "assay": "Agonist activity at human glucocorticoid receptor at 2 uM by cell based assay"}, "[29]": {"molecular_target": "Sodium-dependent noradrenaline transporter (Homo sapiens) (UniProt P23975)", "assay": "Inhibition of human norepinephrine transporter at 2 uM by cell based assay"}, "[30]": {"molecular_target": "Sodium-dependent serotonin transporter (Homo sapiens) (UniProt P31645)", "assay": "Inhibition of human serotonin transporter at 2 uM by cell based assay"}, "[31]": {"molecular_target": "Voltage-dependent L-type calcium channel subunit alpha-1C (Homo sapiens, UniProt Q13936)", "assay": "Inhibition of human L-type calcium channel Cav1.2 at 2 uM by cell based assay"}, "[32]": {"molecular_target": "GABA-A receptor; alpha-1/beta-2/gamma-2 (Homo sapiens) (UniProt P14867+P47870+P18507)", "assay": "Activation of human GABA alpha1beta2gamma2 receptor at 2 uM by cell based assay"}, "Homo sapiens [33]": {"species_on_record": "Homo sapiens", "assay": "Activation of human 5HT3A channel at 2 uM by cell based calcium flux assay"}, "Homo sapiens [34]": {"species_on_record": "Homo sapiens", "assay": "Inhibition of human 5HT3A channel at 2 uM by cell based calcium flux assay"}, "[35]": {"molecular_target": "Voltage-gated potassium channel, IKs; KCNQ1(Kv7.1)/KCNE1(MinK) (Homo sapiens, UniProt P51787+P15382)", "sequence (P51787 whole entry)": "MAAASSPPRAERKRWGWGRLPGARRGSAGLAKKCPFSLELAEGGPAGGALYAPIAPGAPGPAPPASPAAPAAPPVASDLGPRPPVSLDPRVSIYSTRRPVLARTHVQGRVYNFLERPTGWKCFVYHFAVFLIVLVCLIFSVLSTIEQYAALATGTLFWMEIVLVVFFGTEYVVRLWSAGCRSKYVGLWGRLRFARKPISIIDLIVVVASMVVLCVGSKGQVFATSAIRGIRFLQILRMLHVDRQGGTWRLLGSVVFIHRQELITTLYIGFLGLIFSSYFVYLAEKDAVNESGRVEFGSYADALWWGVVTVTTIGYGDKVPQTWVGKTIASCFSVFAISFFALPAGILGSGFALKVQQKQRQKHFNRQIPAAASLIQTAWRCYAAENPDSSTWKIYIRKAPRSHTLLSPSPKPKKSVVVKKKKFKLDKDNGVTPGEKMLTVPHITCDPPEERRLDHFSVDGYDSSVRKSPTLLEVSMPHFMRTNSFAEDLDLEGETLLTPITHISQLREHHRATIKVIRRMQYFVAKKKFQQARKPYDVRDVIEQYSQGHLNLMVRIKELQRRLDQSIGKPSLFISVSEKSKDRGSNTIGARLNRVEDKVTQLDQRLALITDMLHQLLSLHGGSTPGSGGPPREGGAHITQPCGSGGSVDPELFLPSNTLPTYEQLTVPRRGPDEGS", "assay": "Activation of human KvLQT1/mink at 2 uM by thallium flux assay", "format": "protein-complex assay"}, "[36]": {"molecular_target": "Neuronal acetylcholine receptor; alpha4/beta2 (Homo sapiens) (UniProt P17787+P43681)", "assay": "Inhibition of human alpha4beta2 nACHR at 2 uM by cell based calcium flux assay"}, "[37]": {"molecular_target": "Prostaglandin G/H synthase 2 (Homo sapiens) (UniProt P35354)", "assay": "Inhibition of human COX2 at 2 uM"}, "[38]": {"molecular_target": "3',5'-cyclic-AMP phosphodiesterase 4D (Homo sapiens) (UniProt Q08499)", "assay": "Inhibition of human PDE4D2 at 2 uM"}, "[39]": {"molecular_target": "Insulin receptor (Homo sapiens) (UniProt P06213)", "assay": "Inhibition of human INSR at 2 uM"}, "[40]": {"molecular_target": "Vascular endothelial growth factor receptor 2 (Homo sapiens) (UniProt P35968)", "assay": "Inhibition of human VEGFR2 at 2 uM"}}, "note": "Activity calls are given as the source filed them. The rule behind the calls is not given here."}
{"smiles": "CN(C)c1ccc(Nc2nc(-c3ccncc3)nc3c2CC(N)CC3)cc1", "note": "(stereo unspecified)", "values": [{"measurement": "Activity", "setting": "[1]", "result": "inactive"}, {"measurement": "Activity", "setting": "[2]", "result": "Not Active"}, {"measurement": "Activity", "setting": "DNA", "result": "Not Active"}, {"measurement": "Kinetic_solubility", "setting": "[3]", "result": "> 250", "unit": "µM"}, {"measurement": "CL/F", "setting": "[4]", "result": 116, "unit": "mL/min"}, {"measurement": "Activity", "setting": "[5]", "result": "inactive"}, {"measurement": "Activity", "setting": "[6]", "result": "inactive"}, {"measurement": "Activity", "setting": "[7]", "result": "inactive"}, {"measurement": "Activity", "setting": "[8]", "result": "inactive"}, {"measurement": "Activity", "setting": "[9]", "result": "inactive"}, {"measurement": "Activity", "setting": "[10]", "result": "inactive"}, {"measurement": "Activity", "setting": "[11]", "result": "inactive"}, {"measurement": "Activity", "setting": "[12]", "result": "inactive"}, {"measurement": "Activity", "setting": "[13]", "result": "inactive"}, {"measurement": "Activity", "setting": "[14]", "result": "inactive"}, {"measurement": "Activity", "setting": "[15]", "result": "inactive"}, {"measurement": "Activity", "setting": "[16]", "result": "inactive"}, {"measurement": "Activity", "setting": "[17]", "result": "inactive"}, {"measurement": "Activity", "setting": "[18]", "result": "inactive"}, {"measurement": "Activity", "setting": "[19]", "result": "inactive"}, {"measurement": "Activity", "setting": "[20]", "result": "inactive"}, {"measurement": "Activity", "setting": "[21]", "result": "inactive"}, {"measurement": "Activity", "setting": "[22]", "result": "inactive"}, {"measurement": "Activity", "setting": "[23]", "result": "inactive"}, {"measurement": "Activity", "setting": "[24]", "result": "inactive"}, {"measurement": "Activity", "setting": "[25]", "result": "inactive"}, {"measurement": "Activity", "setting": "[26]", "result": "inactive"}, {"measurement": "Activity", "setting": "[27]", "result": "inactive"}, {"measurement": "Activity", "setting": "[28]", "result": "inactive"}, {"measurement": "inhibition", "setting": "[29]", "result": "inactive"}, {"measurement": "inhibition", "setting": "[30]", "result": "inactive"}, {"measurement": "inhibition (INH)", "setting": "[31]", "result": "Not Active"}, {"measurement": "Activity", "setting": "[32]", "result": "inactive"}, {"measurement": "Activity", "setting": "Homo sapiens [33]", "result": "inactive"}, {"measurement": "inhibition", "setting": "Homo sapiens [34]", "result": "inactive"}, {"measurement": "Activity", "setting": "[35]", "result": "Not Active"}, {"measurement": "inhibition", "setting": "[36]", "result": "inactive"}, {"measurement": "inhibition", "setting": "[37]", "result": "inactive"}, {"measurement": "inhibition", "setting": "[38]", "result": "inactive"}, {"measurement": "inhibition", "setting": "[39]", "result": "inactive"}, {"measurement": "inhibition", "setting": "[40]", "result": "inactive"}]}
